# Literature values in patent publication US20100068203A1, “17-Oxymacbecin Derivatives and Their Use in the Treatment of Cancer and/or B-Cell Malignancies” (priority 2006, published 2010).
# Key:
# [1] = tested on: Reverse transcriptase
# [2] = biological target: terminal deoxynucleotidyl transferase (Homo sapiens, UniProt P04053)
# [3] = tested on: SKBr3; settings: compared with geldanamycin and 17-AAG
# [4] = biological target: Hsp90 (Homo sapiens, UniProt P07900)
# [5] = tested on: protozoa
# [6] = tested on: bacteria and fungi; settings: in vitro
# Chain of terminal deoxynucleotidyl transferase (P04053 whole entry, species assumed): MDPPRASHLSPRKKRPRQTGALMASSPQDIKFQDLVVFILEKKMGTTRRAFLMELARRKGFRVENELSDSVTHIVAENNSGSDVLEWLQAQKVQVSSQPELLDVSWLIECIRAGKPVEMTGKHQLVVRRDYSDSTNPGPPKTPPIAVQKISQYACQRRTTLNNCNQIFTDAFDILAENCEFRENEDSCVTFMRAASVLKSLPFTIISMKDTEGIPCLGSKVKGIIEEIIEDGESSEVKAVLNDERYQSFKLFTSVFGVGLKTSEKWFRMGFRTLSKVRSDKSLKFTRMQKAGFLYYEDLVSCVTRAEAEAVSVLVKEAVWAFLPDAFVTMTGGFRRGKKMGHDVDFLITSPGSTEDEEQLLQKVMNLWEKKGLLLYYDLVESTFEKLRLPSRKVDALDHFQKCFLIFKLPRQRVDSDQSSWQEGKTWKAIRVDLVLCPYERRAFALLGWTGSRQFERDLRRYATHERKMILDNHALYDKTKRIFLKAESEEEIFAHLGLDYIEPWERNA
smiles,measurement,setting,value
CO[C@H]1[C@@H](OC)C[C@H](C)[C@@H](OC)C2=CC(=O)C=C(NC(=O)/C(C)=C/C=C\[C@H](C)[C@@H](OC(N)=O)/C(C)=C/[C@@H]1C)C2=O [macbecin],Reverse transcriptase activity inhibition,[1],not inhibited
same,terminal deoxynucleotidyl transferase activity inhibition,[2],not inhibited
CO[C@H]1C[C@H](C)Cc2cc(O)cc(c2)NC(=O)/C=C/CC[C@H](OC)[C@@H](OC(N)=O)/C(C)=C/[C@H](C)[C@H]1O [KOSN1559],IC50 measurement using SKBr3,[3],not reflected in an improvement
same,"binding affinity to Hsp90, greater than 17-AAG",[4]; relative to 17-AAG,8 fold
same,"binding affinity to Hsp90, greater than geldanamycin",[4]; relative to geldanamycin,4 fold
COC1=C2C[C@@H](C)C[C@H](OC)[C@H](O)[C@@H](C)/C=C(\C)[C@H](OC(N)=O)[C@@H](OC)/C=C\C=C(/C)C(=O)NC(=CC1=O)C2=O [geldanamycin],activity in vitro against protozoa,[5],strong activity
same,activity against bacteria and fungi,[6],weak activity
